# Data from patent US9815849B2, “Compositions and methods for treating leukemia” (Dana-Farber Cancer Institute, Inc., priority 2010, dated 2017).
# “Also recorded” adds a separate entry of the source.
# How the values were obtained:
# AML lines = experiment: BrdU cell cycle analysis and apoptosis measurement in AML lines; type: cell-based; details: all tested AML lines
# Method: BrdU incorporation assays were performed according to the manufacturer's protocol (BD, APC BrdU Flow Kit, #552598), where cells were pulsed with BrdU for 30 min. Cells were co-stained with 7-AAD or DAPI for DNA content measurement. For all conditional shRNA experiments, the analysis was gated on shRNA+/dsRed+ cell populations. Annexin V staining for apoptosis was performed according to manufacturer's protocol (BD Biosciences, APC Annexin V, #550475). In FIG. 4e, Annexin V gating was performed on live cells (FSC/SCC) and dsRed+/shRNA+ population, to ensure a clear readout of shRNA effects. […] All analyses were performed using Flowjo software.
# [1] = test system: AML1-ETO9a/Nras^G12D/p53^−/− AML; experiment: AML1-ETO9a/NrasG12D/p53-/- AML mouse model, JQ1 treatment; type: in vivo, mice; details: 50 mg/kg/d, treatment started after disease onset
# Excerpt: FIG. 14A is a schematic showing the experimental strategy. p53^−/− HSPCs were cotransduced with AML1-ETO9a and Luciferase-IRES-NrasG12D constructs, followed by transplantation of cells into a sublethally irradiated recipient mouse. With high-penetrance, mice succumb to AML as has been described previously (Dick, J. E., Blood 2008; 112:4793-807). Splenic leukemia material derived from moribund mice was transplanted into secondary recipient animals. […] FIG. 14B includes bioluminescent images of leukemic mice at indicated timepoints. […] Shown are mean values of 8 mice in each treatment group, error bars represent s.e.m, p-values were calculated using a two-tailed Student's paired t-test.
# Myc [2] = experiment: Myc RT-qPCR and Western blot in leukemia cells; type: cell-based, mouse
# Method: FIG. 20D includes a graph showing RT-qPCR results. […] FIG. 20E includes a graph showing ChIP-qPCR results. […] TSS=transcription start site. […] (n=3). […] Representative images taken at 40× objective are shown. All error bars shown represent s.e.m.
# For Brd4 Western blots, 30 μg of whole cell lysate RIPA extract (25 mM Tris pH7.6, 150 mM NaCl, 1% NP-40, 1% Sodium deoxycholate, 0.1% SDS) was loaded into each lane. For Myc Western blots, cells were lysed directly in Laemmli buffer. About 50,000 cell equivalents were loaded in each lane. Protein extracts were resolved by SDS-PAGE electrophoresis and transferred to nitrocellulose for blotting.
# (§1) RNA was prepared using Trizol® reagent (Invitrogen, Carlsbad, Calif.). cDNA synthesis was performed using gScript™ cDNA SuperMix (Quanta Biosciences, Gaithersburg, Md., #101414-106). Quantitative PCR (qPCR) analysis was performed on an ABI™ 7900HT with Sybr green (ABI, Carlsbad, Calif., #4364344). All signals were quantified using the delta-Ct method. All signals were normalized to the levels of GAPDH.
# Brd4 = Brd4 (Mus musculus, UniProt Q9ESU6); details: MLL-AF9/Nras^G12D leukemia cells
# Method: ChIP assays were performed exactly as described (Filippakopoulos et al.). […] All results were quantified by qPCR performed using SYBR green (ABI) on an ABI 7900HT. Each IP signal was referenced to an input standard curve dilution series (IP/Input) to normalize for differences in starting cell number and for primer amplification efficiency.
# primary AMLs = experiment: cells; details: Homo sapiens, read-out: IC50, growth-suppressive activity
# Method: Primary leukemic cells were obtained from peripheral blood (PB) or bone marrow (BM) aspirate samples of 12 (untreated) patients with AML at diagnosis (n=10) or at relapse (n=2). […] Mononuclear cells (MNC) were prepared using Ficoll and stored in liquid nitrogen until used. […] HL60 and MOLM13 cell lines were included as controls (German Collection of Microorganisms and Cell Cultures, DSMZ, Braunschweig, Germany).
# Filters were air-dried, and the bound radioactivity was measured in a β-counter (Top-Count NXT, Packard Bioscience). All experiments were performed in triplicates.
# [3] = Tolerability and normal hematopoiesis in healthy mice after 20 days of JQ1; type: in vivo, C57BL/6 mice
# Excerpt: Peripheral blood was collected by submandibular bleeding and analyzed using a Hemavet 950 analyzer (Drew Scientific). Values represent average values of 3 replicate mice; error bars indicate s.e.m.
# Representative images are shown.
# FIG. 17B includes graphs showing the percentage of total bone marrow cells staining for the indicated antibodies. (n=3). Error bars indicate s.e.m.
# Paraffin embedded sections were stained with hematoxylin & eosin (H&E). Photographs were taken on a Nikon Eclipse 80i microscope with a Nikon Digital Sight camera using NIS-Elements F2.30 software at a resolution of 2560×1920. Using Adobe Photoshop CS2, images were re-sized and set at a resolution of 300 pixels/inch, autocontrast was applied, and unsharp mask was used to improve image clarity.
# [4] = test system: MLL-AF9/Nras^G12D leukemia; experiment: MLL-AF9/NrasG12D leukemia transplant model, JQ1 treatment; type: in vivo, mice
# Excerpt: FIG. 12A includes bioluminescent images of mice administered doxycycline upon disease onset, i.e., six days post-transplant. Day zero is the first day of doxycycline administration. FIG. 12B includes a graph showing the quantification of bioluminescent imaging responses following doxycycline administration. Shown are mean values of four replicate mice. FIG. 12C includes a graph showing Kaplan-Meier survival curves of recipient mice transplanted with the indicated TRMPV-shRNA leukemia cell line. The period of doxycycline administration is indicated by an arrow. Statistical significance relative to shRNAs that target Renilla luciferase (shRen) was calculated using a Log-rank test; *p=0.0001, **p<0.0001. FIG. 12D includes flow cytometry of donor-derived (CD45.2-positive) bone marrow cells in terminally diseased doxycycline-administered mice. Gate shown includes dsRed-positive/shRNA-positive cells. FIG. 12E includes a graph showing the quantification of dsRed-positive/shRNA-positive percentage in CD45.2-positive terminal leukemia burden. […] Shown are mean values of 6 DMSO- and 7 JQ1-treated mice. p-values were calculated using a two-tailed Student's paired t-test. […] Statistical significance was calculated using a Log-rank test. […] Shown are mean values of 6 DMSO- and 7 JQ1-treated mice. p-values were calculated using a two-tailed Student's paired t-test. […]
# Mice were transplanted with 1 million leukemia cells, followed by treatment initiation on day 4 (when disease becomes visible by imaging). FIG. 13B includes a graph showing quantitation of the bioluminescent images. […] Statistical significance was calculated using a Log-rank test. […] Statistical significance was calculated using a Log-rank test.
# For whole body bioluminescent imaging mice were intraperitoneally injected with 50 mg/kg D-Luciferin (Goldbio, St. Louis, Mo.), and after 10 min. analyzed using an IVIS® Spectrum system (Caliper LifeSciences, Waltham, Mass.). Quantification was performed using Living Image software (Caliper LifeSciences) and standardized rectangular region of interests covering the mouse trunk and extremities. […]
# Myc [5] = experiment: Myc levels in MEF or G1E cells; type: cell-based, mouse
# Method: as §1
# [6] = test system: MLL-AF9/Nras^G12D leukemia cells; experiment: May-Grunwald/Giemsa cytospin morphology of leukemia cells; type: cell-based, mouse; details: 100 nM JQ1, 2 days
# Method: 50,000 cells were resuspend in 100 μl FACS buffer (5% FBS, 0.05% NaN3 in PBS) cytospun onto glass slides using Shandon Cytospin 2 Centrifuge at 500 rpm for 5 min. May-Grunwald (Sigma-Aldrich, #019K4368) and Giemsa (Sigma-Aldrich, #010M4338) stainings were performed according to manufacturer's protocols. Images were collected using a Zeiss Observer Microscope with a 40× objective.
# [7] = test system: primary MLL-rearranged pediatric leukemias; experiment: Pediatric primary leukemia sample analysis (WST-1, 72 h); type: cell-based, human; details: 3/3 tested primary MLL-rearranged pediatric leukemias
# Excerpt: Diagnostic bone marrow samples were collected under institutional review board-approved protocols from newly diagnosed children with acute leukemia. Informed consent was obtained in accordance with the Helsinki protocol. At the time of collection, primary leukemic cells were enriched by density centrifugation using Ficoll-Paque PLUS (GE Healthcare, Piscataway, N.J.) and subsequently stored in liquid nitrogen. Vials of cryopreserved cells were thawed, resuspended in media, and live leukemic cells were enriched by density centrifugation. Cells were maintained in supplemented media with 20% fetal bovine serum. All leukemia cell cultures were incubated at 37° C. in 5% CO2.
# WST-1 assays were performed in triplicate.
# [8] = Pharmacokinetic study of (+)-JQ1 in mice (plasma, LCMS-MS); type: in vivo
# Method: FIG. 29A includes a table of pharmacokinetic data and measured parameters. […] Data represent mean measurements and error bars indicate the standard deviation, both from triplicate independent measurements. Plasma concentrations of drug above the biologically active concentration observed in vitro (100 nM; horizontal red line) are observed for more than 10 hours by extrapolation.
# AML cell lines = experiment: cells; details: Homo sapiens, 72 h, read-out: IC50, growth-suppressive activity (proliferation rate)
# Method: (§2) Proliferation assays were performed by counting the increase in viable cell number over seventy-two hours. Dead cells were excluded by incubating with propidium iodide (PI). Cell concentration measurements were performed on a Guava Easycyte (Millipore, Billerica, Mass.), gating only viable cells using forward/side scatter/PI-cells. Proliferation rate was calculated using the equation: ln(cell concentration72 h/cell concentration0 h)/72. Relative proliferation rate was calculated by normalizing to rate of DMSO-treated cells.
# [9] = test system: non-AML leukemia and solid tumor cell lines; experiment: Proliferation assay of non-AML leukemia and solid tumor cell lines; type: cell-based, human; details: other tested non-AML leukemia and solid tumor cell lines
# Method: as §2
# Hoxa7, Hoxa9, Meis1 = experiment: RT-qPCR of direct MLL-AF9 target genes; type: cell-based, mouse; details: JQ1 treatment of leukemia cells
# Excerpt: FIGS. 30A-30C show the broadly overlapping transcriptional effects elicited upon suppressing Brd4, Myb, and MLL-AF9 with downregulation of Myc upon suppressing any of the three factors. FIG. 30A includes GSEA plots evaluating transcriptional signatures downstream of MLL-AF9 and Myb. […] The 500 gene cutoff corresponds to a Log2 fold-change of −1.17 for Myb and −1.77 for MLL-AF9. FIG. 30B includes a heat map representation of Myc expression in the indicated microarray replicates. Log2 fold-change and adj.P.Val were calculated using Limma algorithm, implemented using Bioconductor. FIG. 30C includes a graph showing RT-qPCR results. […] Error bars represent s.e.m.
# as §1
# [10] = test system: mouse MLL-fusion leukemia cells; experiment: Proliferation assay of mouse leukemia cells versus fibroblasts and G1E; type: cell-based; details: as compared to fibroblasts and G1E
# Method: as §2
# [11] = daily injections of JQ1 50 mg/kg vs vehicle
structure (smiles),measurement,setting,value
"Cc1sc2c(c1C)C(c1ccc(Cl)cc1)=NC(CC(=O)OC(C)(C)C)c1nnc(C)n1-2 (racemic) [JQ1, tert-Butyl 2-(4-(4-chlorophenyl)-2,3,9-trimethyl-6H-thieno[3,2-f][1,2,4]triazolo[4,3-a][1,4]diazepin-6-yl)acetate]",cell-cycle arrest and apoptosis,AML lines,universally triggered cell-cycle arrest and apoptosis
same,activity in established disease,[1],single-agent anti-leukemia activity
same,time to downregulation of Myc mRNA levels,"Myc [2]; 250 nM JQ1, MLL-AF9/Nras^G12D leukemia cells",≤ 60 min
same,Myc mRNA and protein levels,Myc [2]; mouse MLL-AF9/Nras^G12D leukemia cells,dramatic reduction in Myc mRNA levels and Myc protein levels
same,focal Brd4 occupancy ~2 kilobases upstream of the Myc promoter,Brd4,eliminated
same,IC50,primary AMLs,< 0.5 µM
same,impact on normal hematopoiesis,[3]; 50 or 100 mg/kg/d intraperitoneal for 20 days,little if any impact on normal hematopoiesis; also recorded: minimal impact on normal hematopoiesis
same,H&E histopathology of sternal bone marrow,[3]; daily intraperitoneal 50 mg/kg or 100 mg/kg for 20 days,normal cellularity and normal mixed hematopoiesis
same,tolerability,[3]; mice,well-tolerated
same,disease progression (bioluminescent imaging),[4]; [11],marked delay in disease progression
same,survival,[4]; [11],significantly extended survival
same,activity in established disease,"[4]; established MLL-AF9/NrasG12D leukemia, 50 or 100 mg/kg/d",single-agent activity in the setting of established disease
same,effect on Myc levels,Myc [5],minimal effects
same,cell morphology (differentiation),[6],macrophage-like appearance
same,sensitivity to JQ1,[7],highly sensitive
same,half-life,[8]; in rodents,about one
same,IC50,AML cell lines,< 0.5 µM
same,sensitivity to the compound,[9],minimal sensitivity
same,"expression of Hoxa7, Hoxa9, or Meis1","Hoxa7, Hoxa9, Meis1",does not influence expression
same,proliferation sensitivity,[10],strikingly sensitive to sub-micromolar JQ1 concentrations
"Cc1sc2c(c1C)C(c1ccc(Cl)cc1)=N[C@@H](CC(=O)OC(C)(C)C)c1nnc(C)n1-2 [(+)-JQ1, (S)-tert-Butyl 2-(4-(4-chlorophenyl)-2,3,9-trimethyl-6H-thieno[3,2-f][1,2,4]triazolo[4,3-a][1,4]diazepin-6-yl)acetate]",time with plasma concentration above the biologically active concentration observed in vitro (100 nM),"[8]; 50 mg/kg intraperitoneal, by extrapolation",more than 10 hours
same,Cmax,"[8]; mouse, plasma, ip, single intraperitoneal injection 50 mg/kg, adult C1 male mice, read-out: peak plasma concentration (Cmax)",> 20 µM
same,AUC,"[8]; mouse, plasma, ip, single intraperitoneal injection 50 mg/kg, adult C1 male mice, read-out: total drug exposure (AUC)",> 20 µg·h/mL
